Assay results reported in patent publication US7314870B2, “Compounds, their preparation and use” (Neurosearch A/S, priority 2001, dated 2008).
pIC50: −log10 of the molar value. Structures can show the parent of a compound that is named as a salt. Where two headings read alike, the source gives them in different places.

Columns and labels:
[1] = target: T1, serotonin transporter (Rattus norvegicus, UniProt P31652); assay: In vitro inhibition of 3H-5-hydroxytryptamine uptake in cortical synaptosomes; assay type: biochemical; conditions: 1 nM 3H-5-HT, 30 minutes at 37° C
T1 construct: Cerebral cortices from male Wistar rats (150-200 g) are homogenized; from tissue; host or cells: rat cerebral cortex synaptosomes (P2 pellet)
Procedure: In Vitro Inhibition of ^3H-5-Hydroxytyptamine Uptake in Cortical Synaptosomes
Serotonin transporters/uptake sites on nerve terminals presumably function to terminate neuronal signaling by removing serotonin from the synaptic cleft. The activity of the serotonin transporter integral protein can be measured in vitro by synaptosomal uptake of ^3H-5-hydroxytryptamine (5-HT, serotonin).
Preparations are performed at 0-4° C. Cerebral cortices from male Wistar rats (150-200 g) are homogenized for 5-10 seconds in 100 volumes of ice-cold 0.32 M sucrose containing 1 mM pargyline, using a motor driven teflon pestle in a glass homogenizing vessel. Monoamine oxidase activity is inhibited in the presence of pargyline.
The homogenate is subjected to centrifugation at 1000×g for 10 minutes. The resulting supernatant is then centrifuged at 27,000×g for 50 minutes and the supernatant is discarded. […]
Aliquots of 4.0 ml tissue suspension are added to 100 μl of test solution and 100 μl of ^3H-5-HT (1 nM, final concentration), mixed and incubated for 30 minutes at 37° C. Non-specific uptake is determined using Citalopram (1 μM, final concentration, available from Lundbeck, Denmark). […]
The amount of radioactivity on the filters is determined by conventional liquid scintillation counting. Specific uptake is calculated as the difference between total uptake and non-specific uptake. […]

[2] = target: T2, α7-subtype of nicotinic receptors (Rattus norvegicus, UniProt Q05941); assay: In vitro inhibition of 3H-α-bungarotoxine binding in rat brain
T2 construct: Cerebral cortices from male Wistar rats (150-250 g) are homogenised; from tissue; host or cells: rat cerebral cortex membrane homogenate
T2 sequence (Q05941 23-502): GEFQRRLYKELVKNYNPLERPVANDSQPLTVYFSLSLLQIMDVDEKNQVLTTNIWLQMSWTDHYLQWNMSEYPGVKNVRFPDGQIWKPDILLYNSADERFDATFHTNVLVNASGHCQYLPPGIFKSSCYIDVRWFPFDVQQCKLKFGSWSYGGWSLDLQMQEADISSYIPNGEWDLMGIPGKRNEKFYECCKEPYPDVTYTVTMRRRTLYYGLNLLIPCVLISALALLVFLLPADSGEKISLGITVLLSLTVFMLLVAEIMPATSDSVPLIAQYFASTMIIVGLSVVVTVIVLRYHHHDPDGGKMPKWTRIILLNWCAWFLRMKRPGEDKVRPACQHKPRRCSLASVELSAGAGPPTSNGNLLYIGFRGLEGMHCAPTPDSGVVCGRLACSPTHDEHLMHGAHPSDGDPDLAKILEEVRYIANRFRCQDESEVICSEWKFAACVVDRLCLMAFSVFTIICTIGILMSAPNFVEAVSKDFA

T1 sequence (P31652 whole entry): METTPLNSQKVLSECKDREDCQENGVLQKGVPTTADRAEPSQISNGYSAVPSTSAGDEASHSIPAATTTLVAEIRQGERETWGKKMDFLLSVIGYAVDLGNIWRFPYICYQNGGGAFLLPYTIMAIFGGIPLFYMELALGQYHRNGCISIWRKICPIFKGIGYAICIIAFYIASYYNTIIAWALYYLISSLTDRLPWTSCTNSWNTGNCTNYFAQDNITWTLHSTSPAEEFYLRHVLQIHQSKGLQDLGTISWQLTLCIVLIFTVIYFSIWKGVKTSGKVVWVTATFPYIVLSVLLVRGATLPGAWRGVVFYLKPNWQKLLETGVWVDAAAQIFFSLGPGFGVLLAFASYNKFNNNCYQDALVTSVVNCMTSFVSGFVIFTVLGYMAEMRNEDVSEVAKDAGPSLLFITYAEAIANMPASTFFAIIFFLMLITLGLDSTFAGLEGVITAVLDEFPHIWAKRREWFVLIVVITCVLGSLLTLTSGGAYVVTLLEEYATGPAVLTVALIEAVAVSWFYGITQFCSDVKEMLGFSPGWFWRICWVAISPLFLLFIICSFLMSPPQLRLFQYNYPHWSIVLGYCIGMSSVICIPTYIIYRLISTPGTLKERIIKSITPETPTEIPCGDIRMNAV

Structure (SMILES) | pIC50 [1] | pIC50 [2] | pIC50 ([2]; rat cerebral cortex homogenate, 2 nM 3H-α-bungarotoxine, 2 hours at 37° C, read-out: Inhibition of 3H-α-Bungarotoxine Binding IC50)
O=S1(=O)C(C2=CC3CCC(C2)N3)=Cc2ccccc21 (racemic) [Compound 1, (±)-3-(2-Benzo[b]thiophenyl-1,1-dioxide)-8-H-8-azabicyclo[3.2.1]oct-2-ene fumaric acid salt] | 6.72 |  | 
CN1C2C=C(C3=Cc4ccccc4S3(=O)=O)CC1CC2 (racemic) [Compound 2, (±)-3-2-Benzo[b]thiophenyl-1,1-dioxide)-8-methyl-8-azabicyclo[3.2.1]oct-2-ene fumaric acid salt] | 6.18 | 7.74 | 
C=CCN1C2C=C(C3=Cc4ccccc4S3(=O)=O)CC1CC2 (racemic) [Compound 3, (±)-3-(2-Benzo[b]thiophenyl-1,1-dioxide)-8-allyl-8-azabicyclo[3.2.1]oct-2-ene] |  |  | 6.07
